Earlier results as cited in the PKSmart pharmacokinetics tables (Seal et al. 2025).
Where a SMILES comes first, the peptide text is derived from it.

Assay: Lombardo, Berellini, Obach 2018, Drug Metab Dispos 46:1466, doi 10.1124/dmd.118.082966
Conditions: human; for MRT / Vd / clearance / half-life: in vivo, iv; for fraction unbound: plasma

Question: What does the source list for CN1[C@@H]2CC[C@H]1C[C@@H](OC(=O)c1c[nH]c3ccccc13)C2?
Answer: MRT: 6.3 h; Vd: 9.7 L/kg; clearance: 26 mL/min/kg; half-life: 5.6 h

Question: Which clearance does the source give for CCCc1c(OCCCS(=O)(=O)c2ccc(C(=O)CCC(=O)O)cc2)ccc(C(C)=O)c1O here?
Answer: Its clearance is 17.4 mL/min/kg.

Question: What about the half-life of the same molecule?
Answer: The half-life was 0.04 h.

Question: Which results are given for CC(C)[C@@H](CC[C@@H](C)[C@H]1CC[C@H]2[C@@H]3[C@H](O)C[C@H]4C[C@@H](NCCCNCCCCN)CC[C@]4(C)[C@H]3CC[C@]12C)OS(=O)(=O)O?
Answer: MRT: 3.2 h; Vd: 0.23 L/kg; clearance: 1.2 mL/min/kg; half-life: 9.5 h

Question: Which MRT does the source give for COC(=O)NC(C(=O)N1CCC[C@H]1c1ncc(-c2ccc(-c3ccc(-c4cnc([C@@H]5CCCN5C(=O)C(NC(=O)OC)C(C)C)[nH]4)cc3)cc2)[nH]1)C(C)C (some centres not stated) here?
Answer: The MRT was 11.2 h.

Question: What about the Vd of the same molecule?
Answer: The Vd was 0.67 L/kg.

Question: And the clearance?
Answer: The clearance was 1 mL/min/kg.

Question: What about the half-life of the same molecule?
Answer: Its half-life is 13.5 h.

Question: And the fraction unbound?
Answer: Its fraction unbound is 0.01.

Question: With OCCN1C[C@H](O)[C@@H](O)[C@H](O)[C@H]1CO as the molecule, how does the MRT read?
Answer: The MRT was 2.7 h.

Question: And the Vd?
Answer: Its Vd is 0.28 L/kg.

Question: And the clearance?
Answer: The clearance was 1.7 mL/min/kg.

Question: What about the half-life of the same molecule?
Answer: The half-life was 2.3 h.

Question: What does the source list for COc1ccc2[n-]c([S@+](O)Cc3ncc(C)c(OC)c3C)nc2c1?
Answer: MRT: 0.9 h; Vd: 0.2 L/kg; clearance: 3.85 mL/min/kg; half-life: 0.83 h; fraction unbound: 0.03

Question: With COc1cc(N)cn[n+]1-c1ccccc1 as the molecule, how does the MRT read?
Answer: Its MRT is 13 h.

Question: And the Vd?
Answer: The Vd was 4 L/kg.

Question: What about the clearance of the same molecule?
Answer: The clearance was 5.1 mL/min/kg.

Question: And the half-life?
Answer: The half-life was 14.1 h.

Question: What does the source list for OCc1ncc2n1-c1ccc(Cl)cc1C(c1ccccc1F)=NC2?
Answer: MRT: 1.3 h; Vd: 0.77 L/kg; clearance: 9.71 mL/min/kg; half-life: 1.1 h; fraction unbound: 0.1

Question: With O=C(O)CO as the molecule, how does the MRT read?
Answer: Its MRT is 2.75 h.

Question: What about the Vd of the same molecule?
Answer: Its Vd is 0.67 L/kg.

Question: And the clearance?
Answer: Its clearance is 4.05 mL/min/kg.

Question: What about the half-life of the same molecule?
Answer: Its half-life is 2.1 h.

Question: What about the fraction unbound of the same molecule?
Answer: Its fraction unbound is 0.84.

Question: Which MRT does the source give for N=C(N)NC(=O)Cc1c(Cl)cccc1Cl here?
Answer: The MRT was 22 h.

Question: And the Vd?
Answer: The Vd was 5.6 L/kg.

Question: What about the clearance of the same molecule?
Answer: Its clearance is 4.5 mL/min/kg.

Question: What about the half-life of the same molecule?
Answer: Its half-life is 15 h.

Question: For C=CCOc1ccccc1OC[C@H](O)CNC(C)C, which MRT is on record?
Answer: Its MRT is 1.56 h.

Question: And the Vd?
Answer: The Vd was 0.72 L/kg.

Question: And the clearance?
Answer: Its clearance is 7.7 mL/min/kg.

Question: And the half-life?
Answer: The half-life was 1.09 h.

Question: And the fraction unbound?
Answer: Its fraction unbound is 0.19.

Question: Which results are given for CC(C)(O)[C@@H]1CC[C@](C)([C@H]2[C@@H](O)C[C@@]3(C)[C@@H]4C[C@H](O[C@@H]5O[C@H](CO)[C@@H](O)[C@H](O)[C@H]5O)[C@H]5C(C)(C)[C@@H](O[C@@H]6OC[C@@H](O)[C@H](O)[C@H]6O)CC[C@@]56C[C@@]46CC[C@]23C)O1?
Answer: MRT: 2.78 h; Vd: 0.12 L/kg; clearance: 0.74 mL/min/kg; half-life: 2.65 h; fraction unbound: 0.14

Question: Which MRT does the source give for CC1(C)O[C@@H]2C[C@H]3[C@@H]4CC=C5CC(=O)C=C[C@]5(C)[C@@]4(F)[C@@H](O)C[C@]3(C)[C@]2(C(=O)CO)O1 here?
Answer: Its MRT is 2.5 h.

Question: And the Vd?
Answer: Its Vd is 1.4 L/kg.

Question: What about the clearance of the same molecule?
Answer: Its clearance is 9.4 mL/min/kg.

Question: What about the half-life of the same molecule?
Answer: The half-life was 2.4 h.

Question: And the fraction unbound?
Answer: The fraction unbound was 0.2.

Question: What does the source list for CC(=O)NC(CO)C(=O)NC(CC(=O)O)C(=O)NC(CCCCN)C(=O)N1CCCC1C(=O)O (configuration not stated) (Ac-SDKP-OH; configuration not given here)?
Answer: clearance: 18.7 mL/min/kg; half-life: 0.08 h

Question: Which Vd does the source give for COc1ccccc1Oc1c(NS(=O)(=O)c2ccc(C(C)C)cn2)nc(-c2ccnc(-c3nnn[nH]3)c2)nc1OCCO here?
Answer: Its Vd is 0.28 L/kg.

Question: And the clearance?
Answer: The clearance was 8.1 mL/min/kg.

Question: And the half-life?
Answer: The half-life was 3.8 h.

Question: And the fraction unbound?
Answer: Its fraction unbound is 0.0085.

Question: Which MRT does the source give for N=C(N)c1ccc(OCCCCCOc2ccc(C(=N)N)cc2)cc1 here?
Answer: The MRT was 12 h.

Question: What about the Vd of the same molecule?
Answer: Its Vd is 53 L/kg.

Question: What about the clearance of the same molecule?
Answer: The clearance was 74 mL/min/kg.

Question: And the half-life?
Answer: The half-life was 25 h.

Question: And the fraction unbound?
Answer: Its fraction unbound is 0.09.

Question: What does the source list for CO[C@@H]1[C@@H](O[C@@H]2O[C@H](C)[C@@H](O[C@H]3C[C@@](C)(O)[C@@H](O)[C@H](C)O3)[C@H](N(C)C)[C@H]2O)[C@@H](CC=O)C[C@@H](C)[C@@H](O[C@H]2CC[C@@H](N(C)C)[C@H](C)O2)C=CC=CC[C@@H](C)OC(=O)C[C@H]1O?
Answer: MRT: 7 h; clearance: 12.8 mL/min/kg; half-life: 5.2 h; fraction unbound: 0.26

Question: With COc1ccc(-n2nc(C(N)=O)c3c2C(=O)N(c2ccc(N4CCCCC4=O)cc2)CC3)cc1 as the molecule, how does the Vd read?
Answer: Its Vd is 0.3 L/kg.

Question: And the clearance?
Answer: Its clearance is 0.8 mL/min/kg.

Question: What about the half-life of the same molecule?
Answer: Its half-life is 12 h.

Question: With O=S(=O)(c1cccc2cnccc12)N1CCCNCC1 as the molecule, how does the MRT read?
Answer: The MRT was 0.26 h.

Question: And the Vd?
Answer: The Vd was 1.22 L/kg.

Question: Which results are given for COC1=C(C(=O)O)N2C(=O)C(NC(=O)C(N)C3=CCC=CC3)[C@H]2SC1 (some centres not stated)?
Answer: MRT: 0.59 h; Vd: 0.17 L/kg; clearance: 4.78 mL/min/kg; half-life: 0.74 h; fraction unbound: 0.1

Question: Which MRT does the source give for CS(=O)(=O)c1ccc([C@@H](O)[C@@H](COC(=O)CN)NC(=O)C(Cl)Cl)cc1 here?
Answer: The MRT was 0.23 h.

Question: And the Vd?
Answer: The Vd was 0.13 L/kg.

Question: What about the clearance of the same molecule?
Answer: The clearance was 9.6 mL/min/kg.

Question: What about the half-life of the same molecule?
Answer: The half-life was 0.28 h.

Question: What about the fraction unbound of the same molecule?
Answer: The fraction unbound was 0.27.

Question: With C[C@H]1[C@H](C)CC[C@]2(C(=O)O)CC[C@@]3(C)C(=CC[C@@H]4[C@@]5(C)CC[C@H](O)C(C)(C)[C@@H]5CC[C@]43C)[C@H]12 as the molecule, how does the MRT read?
Answer: The MRT was 2.34 h.

Question: And the clearance?
Answer: The clearance was 3.87 mL/min/kg.

Question: What about the half-life of the same molecule?
Answer: Its half-life is 4.8 h.

Question: With Clc1ccc2nsnc2c1NC1=NCCN1 as the molecule, how does the MRT read?
Answer: The MRT was 3.6 h.

Question: What about the Vd of the same molecule?
Answer: The Vd was 2.4 L/kg.

Question: What about the clearance of the same molecule?
Answer: Its clearance is 11 mL/min/kg.

Question: And the half-life?
Answer: Its half-life is 2.4 h.

Question: Which MRT does the source give for COC1C(=O)C(C)C[C@H](C)/C=C/C=C/C=C(\C)[C@@H](OC)C[C@@H]2CC[C@@H](C)[C@@](O)(O2)C(=O)C(=O)N2CCCCC2C(=O)O[C@H]([C@H](C)C[C@@H]2CC[C@H](n3cnnn3)[C@H](OC)C2)CC(=O)C(C)=CC(C)[C@H]1O (some centres not stated) here?
Answer: The MRT was 33 h.

Question: And the Vd?
Answer: The Vd was 1.3 L/kg.

Question: And the clearance?
Answer: The clearance was 0.67 mL/min/kg.

Question: What about the half-life of the same molecule?
Answer: Its half-life is 35 h.

Question: What about the fraction unbound of the same molecule?
Answer: The fraction unbound was 0.26.

Question: For C[C@@H]1C[C@@H]2[C@@H]3CC=C4CC(=O)C=C[C@]4(C)C3=CC[C@]2(C)C1C(=O)CN1CCN(c2cc(N3CCCC3)nc(N3CCCC3)n2)CC1 (some centres not stated), which MRT is on record?
Answer: Its MRT is 23.2 h.

Question: And the Vd?
Answer: Its Vd is 9.8 L/kg.

Question: And the clearance?
Answer: Its clearance is 7 mL/min/kg.

Question: What about the half-life of the same molecule?
Answer: The half-life was 49.3 h.

Question: What about the fraction unbound of the same molecule?
Answer: The fraction unbound was 0.006.

Question: With O=C(O)CCCC[C@@H]1CCSS1 as the molecule, how does the MRT read?
Answer: The MRT was 0.14 h.

Question: And the Vd?
Answer: The Vd was 0.1 L/kg.

Question: And the clearance?
Answer: Its clearance is 11.5 mL/min/kg.

Question: And the half-life?
Answer: The half-life was 0.21 h.

Question: Which MRT does the source give for CC(=O)[C@]1(O)Cc2c(O)c3c(c(O)c2[C@@H](O[C@H]2C[C@H](N4CC4)[C@H](OS(C)(=O)=O)[C@H](C)O2)C1)C(=O)c1ccccc1C3=O here?
Answer: The MRT was 2.09 h.

Question: And the Vd?
Answer: Its Vd is 2.95 L/kg.

Question: What about the clearance of the same molecule?
Answer: The clearance was 23.5 mL/min/kg.

Question: And the half-life?
Answer: The half-life was 7.33 h.

Question: And the fraction unbound?
Answer: The fraction unbound was 0.006.

Question: For CN(CC(O)=NO)C(=O)C1CCCCC1C(=O)O (configuration not stated), which MRT is on record?
Answer: The MRT was 2.8 h.

Question: And the Vd?
Answer: Its Vd is 1 L/kg.

Question: And the clearance?
Answer: The clearance was 6.3 mL/min/kg.

Question: And the half-life?
Answer: Its half-life is 2.6 h.

Question: And the fraction unbound?
Answer: The fraction unbound was 1.

Question: Which results are given for Cn1cncc1[C@@](N)(c1ccc(Cl)cc1)c1ccc2c(c1)c(-c1cccc(Cl)c1)cc(=O)n2C?
Answer: MRT: 3.07 h; Vd: 0.93 L/kg; clearance: 5.03 mL/min/kg; half-life: 2.52 h; fraction unbound: 0.006

Question: What does the source list for C#C[C@]1(O)CC[C@H]2[C@@H]3CCC4=Cc5oncc5C[C@]4(C)[C@H]3CC[C@@]21C?
Answer: MRT: 5.49 h; Vd: 5.18 L/kg; clearance: 15.7 mL/min/kg; half-life: 2.31 h

Question: With CCCC(C)C1(CC)C(=O)NC(=S)NC1=O (configuration not stated) as the molecule, how does the MRT read?
Answer: Its MRT is 2.4 h.

Question: What about the Vd of the same molecule?
Answer: The Vd was 1.2 L/kg.

Question: And the clearance?
Answer: The clearance was 8.2 mL/min/kg.

Question: And the half-life?
Answer: The half-life was 2 h.

Question: What about the fraction unbound of the same molecule?
Answer: Its fraction unbound is 0.14.

Question: With CC1(C)S[C@@H]2C(NC(=O)C(c3ccccc3)S(=O)(=O)O)C(=O)N2C1C(=O)O (some centres not stated) as the molecule, how does the MRT read?
Answer: The MRT was 1.6 h.

Question: And the Vd?
Answer: The Vd was 0.15 L/kg.

Question: And the clearance?
Answer: Its clearance is 1.6 mL/min/kg.

Question: And the half-life?
Answer: Its half-life is 1.2 h.

Question: And the fraction unbound?
Answer: The fraction unbound was 0.5.
